In patent US10005767B2, “Compositions and methods for inhibition of the JAK pathway” (Rigel Pharmaceuticals, Inc., priority 2009, dated 2018) one finds IC50 data, which are given here for 24 molecules.

Structures can show the parent of a compound that is named as a salt. Where two headings read alike, the source gives them in different places.

The experiment concerns human primary T-cells, IL-2 stimulated proliferation (JAK-1 and JAK-3 dependent; reported as JAK3 activity). The experiment is described as follows: Human primary T-cell proliferation stimulated by IL-2 (Example 3). The experiment is classed as cell-based. The following applies: tested under conditions described in Example 3 (IL-2 stimulated human primary T-cell proliferation), read-out: ability to inhibit JAK3 activity, IC50 range (Table V). The gist of the method: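 Peripheral-blood human T-cells pre-activated via TCR/CD28, IL-2-starved overnight, then cultured 72 h at 37 °C with compound in Yssel's medium containing IL-2 (80 U/mL in cell suspension). Proliferation read as viable-cell ATP by CellTiter-Glo luminescence; reduction versus control taken as JAK pathway inhibition.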

`Cc1cnc(Nc2cccc(S(N)(=O)=O)c2)nc1Nc1ccc2[nH]c(=O)[nH]c2c1` [Compound I-11, N4-(benzimidazolin-2-on-5-yl)-N2-((3-aminosulfonyl)phenyl)-5-methylpyrimidine-2,4-diamine]: the IC50 is less than 500 nM.

Regarding `Cc1cnc(Nc2cc(F)cc(OC(F)F)c2)nc1Nc1ccc2oc(=O)[nH]c2c1` [Compound I-401, N2-(3-difluoromethoxy-5-fluoro)phenyl-5-methyl-N4-(2-oxo-2,3-dihydro-1,3-benzoxazol-5-yl)-2,4-pyrimidinediamine], the IC50 was less than 500 nM. On to `CCCNC(C)c1cc(Nc2ncc(C)c(Nc3ccc4oc(=O)[nH]c4c3)n2)cc(OC)c1` (stereo not drawn) [Compound I-232, 5-(2-(3-methoxy-5-(1-(propylamino)ethyl)phenylamino)-5-methylpyrimidin-4-ylamino)benzo[d]oxazol-2(3H)-one], for which the concentration for half-maximal inhibition (IC50) (Homo sapiens, T-cell) was less than 500 nM. `Cc1cnc(Nc2ccc(N3CCOCC3)cc2)nc1Nc1ccc2oc(=O)[nH]c2c1` [Compound I-338, 5-methyl-N2-(4-morpholino)phenyl-N4-(2-oxo-2,3-dihydro-1,3-benzoxazol-5-yl)-2,4-pyrimidinediamine]: the concentration for half-maximal inhibition (IC50) was less than 500 nM. As to `Cc1cnc(Nc2ccc(C3NCC4CCCCC43)nc2)nc1Nc1ccc2oc(=O)[nH]c2c1` (stereo not drawn) [II-121, 5-methyl-N2-[2-(octahydroisoindol-1-yl)pyridin-5-yl]-N4-(2-oxo-2,3-dihydro-1,3-benzoxazol-5-yl)-2,4-pyrimidinediamine], the IC50 (Homo sapiens, T-cell) was less than 500 nM. Still for that read-out and setting: under `CC(=O)c1cc(Nc2ncc(C)c(Nc3ccc4oc(=O)[nH]c4c3)n2)cc(C(F)(F)F)c1` [Compound I-445, 5-(2-(3-acetyl-5-(trifluoromethyl)phenylamino)-5-methylpyrimidin-4-ylamino)benzo[d]oxazol-2(3H)-one] stands less than 500 nM.

As to `COc1ccc(Nc2ncc(C)c(Nc3ccc4oc(=O)[nH]c4c3)n2)cc1C(=O)N1CCOCC1` [Compound I-262, 5-(2-(4-methoxy-3-(morpholine-4-carbonyl)phenylamino)-5-methylpyrimidin-4-ylamino)benzo[d]oxazol-2(3H)-one], the half-maximal inhibitory concentration (IC50) (Homo sapiens, T-cell) is less than 500 nM. The same measure, in the same setting: under `Cc1cnc(Nc2cnc(N3C[C@@H]4C[C@H]3CN4C)c(C#N)c2)nc1Nc1ccc2oc(=O)[nH]c2c1` [II-115, N4-(benzo[d]oxazolin-2(3H)-one-5-yl)-N2-[3-cyano-2-((1S,4S)-5-methyl-2,5-diazabicyclo[2.2.1]heptan-2-yl)pyridine-5-yl]-5-methyl-2,4-pyrimidinediamine] stands less than 500 nM. On the same count and under the same terms, under `Cc1cnc(Nc2ccc(C(C)N3CCCC3)cc2)nc1Nc1ccc2oc(=O)[nH]c2c1` (stereo not drawn) [Compound I-203, 5-(5-methyl-2-(4-(1-(pyrrolidin-1-yl)ethyl)phenylamino)pyrimidin-4-ylamino)benzo[d]oxazol-2(3H)-one] stands less than 500 nM; under `CCc1cccc(Nc2ncc(C)c(Nc3ccc4oc(=O)[nH]c4c3)n2)c1` [Compound I-503, 5-(2-(3-ethylphenylamino)-5-methylpyrimidin-4-ylamino)benzo[d]oxazol-2(3H)-one], less than 500 nM. Still for that read-out and setting: under `CCN1CCN(c2ccc(Nc3ncc(C)c(Nc4ccc5oc(=O)[nH]c5c4)n3)cc2C(F)(F)F)CC1` [Compound I-110, N4-(benzoxazolin-2-on-5-yl)-N2-[3-trifluoromethyl-4-(4-ethylpiperazin-1-yl)phenyl]-5-methylpyrimidine-2,4-diamine] stands less than 500 nM; under `Cc1cc(Nc2ncc(C)c(Nc3ccc4oc(=O)[nH]c4c3)n2)ccc1-c1ccncc1` [Compound I-482, 5-(5-methyl-2-(3-methyl-4-(pyridin-4-yl)phenylamino)pyrimidin-4-ylamino)benzo[d]oxazol-2(3H)-one formate salt], less than 500 nM. In the case of `Cc1cnc(Nc2ccc(OC(F)F)cc2)nc1Nc1ccc2oc(=O)[nH]c2c1` [Compound I-311, N2-(4-difluoromethoxy)phenyl-5-methyl-N4-(2-oxo-2,3-dihydro-1,3-benzoxazol-5-yl)-2,4-pyrimidinediamine], the IC50 is less than 500 nM. `Cc1ccc(Nc2ncc(C)c(Nc3ccc4oc(=O)[nH]c4c3)n2)cc1S(C)(=O)=O` [Compound I-239, 5-(5-methyl-2-(4-methyl-3-(methylsulfonyl)phenylamino)pyrimidin-4-ylamino)benzo[d]oxazol-2(3H)-one]: the IC50 (Homo sapiens, T-cell) is less than 500 nM. On to `Cc1cnc(Nc2ccc(S(N)(=O)=O)cc2)nc1Nc1ccc2oc(=O)n(C)c2c1` [Compound I-68, N2-((4-aminosulfonyl)phenyl)-N4-(3-methyl-2-oxo-2,3-dihydrobenzo[d]oxazol-5-yl)-5-methylpyrimidine-2,4-diamine], for which the 50% inhibitory concentration (IC50) was less than 500 nM. Consider `Cc1cccc(Nc2ncc(C)c(Nc3ccc4oc(=O)[nH]c4c3)n2)c1` [Compound I-403, 5-(5-Methyl-2-m-tolylamino-pyrimidin-4-ylamino)-3H-benzooxazol-2-one], for which the IC50 (Homo sapiens, T-cell) is less than 500 nM.

For `CCN(CC)CCOc1ccc(Nc2ncc(C)c(Nc3ccc4oc(=O)[nH]c4c3)n2)cc1` [Compound I-449, 5-{2-[4-(2-Diethylamino-ethoxy)-phenylamino]-5-methyl-pyrimidin-4-ylamino}-3H-benzooxazol-2-one], the half-inhibitory concentration (IC50) (Homo sapiens, T-cell) is less than 500 nM.

On to `Cc1cnc(Nc2ccc3c(C)n[nH]c3c2)nc1Nc1ccc2oc(=O)[nH]c2c1` [IV-48, 5-methyl-N2-(3-methylindazol-6-yl)-N4-(2-oxo-2,3-dihydro-1,3-benzoxazol-5-yl)-2,4-pyrimidinediamine], for which the half-maximal inhibitory concentration (IC50) (Homo sapiens, T-cell) is less than 500 nM. On the same count and under the same terms, under `Cc1cnc(Nc2ccc(N3CCC(C)(C)CC3)nc2)nc1Nc1ccc2oc(=O)[nH]c2c1` [II-60, 5-(2-(6-(4,4-dimethylpiperidin-1-yl)pyridin-3-ylamino)-5-methylpyrimidin-4-ylamino)benzo[d]oxazol-2(3H)-one] stands less than 500 nM; under `COc1cc(Nc2ncc(C)c(Nc3ccc4oc(=O)[nH]c4c3)n2)cnc1OC` [II-140, N2-(2,3-dimethoxypyridin-5-yl)-5-methyl-N4-(2-oxo-2,3-dihydro-1,3-benzoxazol-5-yl)-2,4-pyrimidinediamine], less than 500 nM; under `Cc1cnc(Nc2ccc(C(=O)N3CCNCC3)nc2)nc1Nc1ccc2oc(=O)[nH]c2c1` [II-45, 5-{5-Methyl-2-[6-(piperazine-1-carbonyl)-pyridin-3-ylamino]-pyrimidin-4-ylamino}-3H-benzooxazol-2-one], less than 500 nM.

`Cc1cc(C)c(Nc2ncc(C)c(Nc3ccc4oc(=O)[nH]c4c3)n2)c(C)c1` [IV-61, 5-[5-Methyl-2-(2,4,6-trimethyl-phenylamino)-pyrimidin-4-ylamino]-3H-benzooxazol-2-one]: the IC50 (Homo sapiens, T-cell) was greater than 10000 nM. With `Cc1cnc(Nc2cc(OC3CCC3)cc(C(F)(F)F)c2)nc1Nc1ccc2oc(=O)[nH]c2c1` [Compound I-226, 5-(2-(3-cyclobutoxy-5-(trifluoromethyl)phenylamino)-5-methylpyrimidin-4-ylamino)benzo[d]oxazol-2(3H)-one], the concentration for half-maximal inhibition (IC50) (Homo sapiens, T-cell) is 500 to 5000 nM.

Take `Cc1cccc(Nc2ncc(C)c(Nc3ccc4oc(=O)[nH]c4c3)n2)n1` [IV-51, 5-(5-methyl-2-(6-methylpyridin-2-ylamino)pyrimidin-4-ylamino)benzo[d]oxazol-2(3H)-one]: the concentration for half-maximal inhibition (IC50) (Homo sapiens, T-cell) is 500 to 5000 nM.
